What was measured:
[1] = target: T1, C4760 DNA polymerase (a variant of DPO4, SEQ ID NO:2) (Saccharolobus solfataricus, UniProt Q97W02, A155G/A42V/D156R/D292Y/D294N/E291S/E324K/E325K/E327K/E63R/E79L/G187P/G299W/I153V/I189F/I248T/I295S/K152A/K317Q/K321Q/K56Y/K78D/L293W/M76W/N188Y/P184Q/Q82W/Q83G/R300S/S297Y/S86E/T290K/T301W/V289W/V296Q); test: Primer extension assay with the HIV2 100mer template; assay type: biochemical, Sulfolobus solfataricus; conditions: for polymerization of XNTPs into full length Xpandomer copies (PEM activity): HIV2 100mer template, Eco SSB, 30 minutes at 23° C.
T1 construct: made in house
T1 sequence (Q97W02 other isoform, or with tags, fused parts or gaps with the stated changes): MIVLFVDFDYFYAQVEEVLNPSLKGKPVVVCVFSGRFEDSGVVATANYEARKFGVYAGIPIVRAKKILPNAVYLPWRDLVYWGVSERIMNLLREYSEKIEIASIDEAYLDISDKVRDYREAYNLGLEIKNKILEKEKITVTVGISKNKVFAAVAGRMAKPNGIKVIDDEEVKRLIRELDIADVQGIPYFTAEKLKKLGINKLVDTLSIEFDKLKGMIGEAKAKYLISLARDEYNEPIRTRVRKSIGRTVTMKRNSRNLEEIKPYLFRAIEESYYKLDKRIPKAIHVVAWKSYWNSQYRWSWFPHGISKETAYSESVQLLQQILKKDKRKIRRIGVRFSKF
Description: PEM activity of compound 12 was tested in primer extension assays using the HIV2 100mer template. Primer extension reactions included the following reagents: 50 Mm TrisCl, 200 Mm NH4Oac, 20% PEG8K, 5% NMS, 0.6 nmol PP-60.20, 0.6 Mm MnCl2, 2.75 μg/μl Eco single-strand binding protein (SSB), 1 M urea, 50 pmol each XNTP, 1.1 pmol template, 1 pmol oligonucleotide primer, 1.2 μg/μl purified recombinant C4760 DNA polymerase (SEQ ID NO:2), and 0.5, 1, or 1.5 Mm PEM. 10 μL primer extension reactions were run for 30 minutes at 23° C. and reaction products were analyzed by gel electrophoresis. […] Lanes 2-4 show primer extension products from reactions with a structurally related additive lacking robust PEM activity.
PEM activity of compounds 13 and 14 was tested in primer extension assays using the HIV2 100mer template. Primer extension reactions included the following reagents: 50 Mm TrisCl, 200 Mm NH4Oac, 20% PEG8K, 5% NMS, 0.6 nmol PP-60.20, 0.6 Mm MnCl2, 2.75 μg/μl Eco single-strand binding protein (SSB), 1 M urea, 50 pmol each XNTP, 1.1 pmol template, 1 pmol oligonucleotide primer, 1.2 μg/μl purified recombinant C4760 DNA polymerase (a variant of DPO4, see SEQ ID NO:2), and 0.5, 1, 1.52, or 2.5 Mm PEM. 10 μL primer extension reactions were run for 30 minutes at 23° C. and reaction products were analyzed by gel electrophoresis. A representative gel showing primer extension products is presented in FIG. 11 (the position of the full length HIV2 100mer is indicated by the arrow).
PEM activity of compounds 16, 17, and 18 and combinations thereof were tested in primer extension assays using the HIV2-derived 100mer template. Primer extension reactions included the following reagents: 50 Mm TrisCl, 200 Mm NH4Oac, 20% or 25% PEG8K, 5% NMS, 0.6 nmol PP-60.20, 0.6 Mm MnCl2, 2 μg Kod single-strand binding protein (SSB), 1 M urea, 50 pmol each XNTP, 1 pmol template, 1 pmol oligonucleotide primer, 1.2 μg purified recombinant C4760 DNA polymerase (a variant of DPO4, see SEQ ID NO:2), and 0.5-2 Mm PEM. 10 μL primer extension reactions were run for 30 minutes at 37° C. and reaction products were analyzed by gel electrophoresis. A representative gel showing primer extension products is presented in FIG. 13 (the position of a 100mer product is indicated by the arrow).

[2] = target: T1, C4760 DNA polymerase (a variant of DPO4, SEQ ID NO:2); test: Primer extension on a 45mer RNA template derived from the HIV2 genome sequence; assay type: biochemical, Sulfolobus solfataricus; conditions: 2 Mm PEM; 45mer RNA template from HIV2 genome; 30 minutes at 37° C.
Description: To begin to investigate the potential of PEMs to enhance diverse polymerase reactions, the ability of PEMS to enable DNA polymerase to utilize RNA as a template was tested. An initial screen of several compounds set forth in Table I was conducted using a 45mer RNA template derived from the HIV2 genome sequence. Primer extension reactions included the following reagents: 50 Mm TrisCl, 200 Mm NH4Oac, 20% PEG8K, 5% NMS, 0.6 nmol PP-60.20, 0.6 Mm MnCl2, 2 μg Kod single-strand binding protein (SSB), 1 M urea, 50 pmol each XNTP, 0.5 pmol template, 0.5 pmol oligonucleotide primer, 1.2 μg purified recombinant C4760 DNA polymerase (a variant of DPO4, see SEQ ID NO:2), and 2 Mm PEM. 10 μL primer extension reactions were run for 30 minutes at 37° C. and reaction products were analyzed by gel electrophoresis.

[3] = 0.5, 1, 1.52, or 2.5 Mm PEM, FIG. 11

| Compound | PEM activity on an RNA template [2] | other results |
| --- | --- | --- |
| N#Cc1cc(-c2cn(-c3ccc(O)c(C(=O)O)c3)nn2)nc(-c2cn(-c3ccc(O)c(C(=O)O)c3)nn2)c1 [Compound 12, 5,5′-((4-cyanopyridine-2,6-diyl)bis(1H-1,2,3-triazole-4,1-diyl))bis(2-hydroxybenzoic acid)] | – | polymerization of XNTPs into full length Xpandomer copies (PEM activity) ([1]; 0.5, 1, or 1.5 Mm PEM, FIG. 10): enables polymerization of XNTPs into full length Xpandomer copies of the 100mer template |
| Cc1cc(-c2cn(-c3ccc(C(=O)O)c(O)c3)nn2)nc(-c2cn(-c3ccc(C(=O)O)c(O)c3)nn2)c1 [Compound 13, 4,4′-((4-methylpyridine-2,6-diyl)bis(1H-1,2,3-triazole-4,1-diyl))bis(2-hydroxybenzoic acid)] | – | polymerization of XNTPs into full length Xpandomer copies (PEM activity) [1, 3]: enables polymerization of XNTPs into full length Xpandomer copies of the 100mer template in a manner comparable to that of compound 10 |
| CCOC(=O)c1cc(-c2cn(-c3ccc(C(=O)O)c(O)c3)nn2)nc(-c2cn(-c3ccc(C(=O)O)c(O)c3)nn2)c1 [Compound 14, 4,4′-((4-(ethoxycarbonyl)pyridine-2,6-diyl)bis(1H-1,2,3-triazole-4,1-diyl))bis(2-hydroxybenzoic acid)] | – | polymerization of XNTPs into full length Xpandomer copies (PEM activity) [1, 3]: enables polymerization of XNTPs into full length Xpandomer copies of the 100mer template in a manner comparable to that of compound 10; polymerization of XNTPs into lengthy Xpandomer copies, combination of PEMs ([1]; combination of 2 Mm compound 14 and 0.1 Mm or 0.3 Mm compound 17, HIV2-derived 100mer template, FIG. 13 lanes 7-9): also enabled polymerization of XNTPs into lengthy Xpandomer copies of the 100mer template |
| COC(=O)c1cc(-c2cn(-c3ccc(C(=O)O)c(O)c3)nn2)nc(-c2cn(-c3ccc(C(=O)O)c(O)c3)nn2)c1 [Compound 16, 4,4′-((4-(methoxycarbonyl)pyridine-2,6-diyl)bis(1H-1,2,3-triazole-4,1-diyl))bis(2-hydroxybenzoic acid)] | – | polymerization of XNTPs into lengthy Xpandomer copies (PEM activity) ([1]; 2 Mm compound 16, 0.5, 1, 2, and 3 Mm compound 17, HIV2-derived 100mer template, Kod SSB, 30 minutes at 37° C., FIG. 13): enable polymerization of XNTPs into lengthy Xpandomer copies of the 100mer template in a manner comparable to that of compound 14; polymerization of XNTPs into full length copies, combination of PEMs ([1]; combination of 2 Mm compound 16 and 0.1 Mm or 0.3 Mm compound 18, HIV2-derived 100mer template, FIG. 13 lanes 10-12): enable polymerization of XNTPS into full length copies of the 100mer template |
| CCN(CC)C(=O)c1cc(-c2cn(-c3ccc(C(=O)O)c(O)c3)nn2)nc(-c2cn(-c3ccc(C(=O)O)c(O)c3)nn2)c1 [Compound 49, 4,4′-((4-(diethylcarbamoyl)pyridine-2,6-diyl)bis(1H-1,2,3-triazole-4,1-diyl))bis(2-hydroxybenzoic acid)] | display PEM activity on an RNA template | – |
| O=C(O)c1ccc(-n2cc(-c3cc(C(=O)N4CCOCC4)cc(-c4cn(-c5ccc(C(=O)O)c(O)c5)nn4)n3)nn2)cc1O [Compound 51, 4,4′-((4-(morpholine-4-carbonyl)pyridine-2,6-diyl)bis(1H-1,2,3-triazole-4,1-diyl))bis(2-hydroxybenzoic acid)] | display PEM activity on an RNA template | – |
| CCNC(=O)c1cc(-c2cn(-c3ccc(C(=O)O)c(C(F)(F)F)c3)nn2)nc(-c2cn(-c3ccc(C(=O)O)c(C(F)(F)F)c3)nn2)c1 [Compound 73, 4,4′-((4-(ethylcarbamoyl)pyridine-2,6-diyl)bis(1H-1,2,3-triazole-4,1-diyl))bis(2-(trifluoromethyl)benzoic acid)] | display PEM activity on an RNA template | – |
| CCNC(=O)c1cc(-c2cn(-c3ccc(C(F)(F)F)c(C(=O)O)c3)nn2)nc(-c2cn(-c3ccc(C(F)(F)F)c(C(=O)O)c3)nn2)c1 [Compound 75, 5,5′-((4-(ethylcarbamoyl)pyridine-2,6-diyl)bis(1H-1,2,3-triazole-4,1-diyl))bis(2-(trifluoromethyl)benzoic acid)] | display PEM activity on an RNA template | – |
| CCNC(=O)c1cc(-c2cn(-c3ccc(C(=O)O)c(F)c3)nn2)nc(-c2cn(-c3ccc(C(=O)O)c(F)c3)nn2)c1 [Compound 76, 4,4′-((4-(ethylcarbamoyl)pyridine-2,6-diyl)bis(1H-1,2,3-triazole-4,1-diyl))bis(2-fluorobenzoic acid)] | display PEM activity on an RNA template | – |
| CCNC(=O)c1cc(-c2cn(-c3cc(C(=O)O)cc(C(F)(F)F)c3)nn2)nc(-c2cn(-c3cc(C(=O)O)cc(C(F)(F)F)c3)nn2)c1 [Compound 93, 5,5′-((4-(ethylcarbamoyl)pyridine-2,6-diyl)bis(1H-1,2,3-triazole-4,1-diyl))bis(3-(trifluoromethyl)benzoic acid)] | display PEM activity on an RNA template | – |
| O=C(NCCO)c1cc(-c2cn(-c3ccc(C(=O)O)c(C(F)(F)F)c3)nn2)nc(-c2cn(-c3ccc(C(=O)O)c(C(F)(F)F)c3)nn2)c1 [Compound 105, 4,4′-((4-((2-hydroxyethyl)carbamoyl)pyridine-2,6-diyl)bis(1H-1,2,3-triazole-4,1-diyl))bis(2-(trifluoromethyl)benzoic acid)] | display PEM activity on an RNA template | – |
| CCNC(=O)c1cc(-c2cn(-c3ccc(C(=O)O)c([N+](=O)[O-])c3)nn2)nc(-c2cn(-c3ccc(C(=O)O)c([N+](=O)[O-])c3)nn2)c1 [Compound 106, 4,4′-((4-(ethylcarbamoyl)pyridine-2,6-diyl)bis(1H-1,2,3-triazole-4,1-diyl))bis(2-nitrobenzoic acid)] | display PEM activity on an RNA template | – |
| CCNC(=O)c1cc(-c2cn(-c3ccc(C(=O)NCC(=O)O)c(C(F)(F)F)c3)nn2)nc(-c2cn(-c3ccc(C(=O)NCC(=O)O)c(C(F)(F)F)c3)nn2)c1 [Compound 110, 2,2′-((4,4′-((4-(ethylcarbamoyl)pyridine-2,6-diyl)bis(1H-1,2,3-triazole-4,1-diyl))bis(2-(trifluoromethyl)benzoyl))bis(azanediyl))diacetic acid] | display PEM activity on an RNA template | – |
| CCNC(=O)c1cc(-n2cc(-c3ccc(C(=O)O)c(C(F)(F)F)c3)nn2)cc(-n2cc(-c3ccc(C(=O)O)c(C(F)(F)F)c3)nn2)c1 [Compound 116, 4,4′-((5-(ethylcarbamoyl)-1,3-phenylene)bis(1H-1,2,3-triazole-1,4-diyl))bis(2-(trifluoromethyl)benzoic acid)] | display PEM activity on an RNA template | – |
| O=C(O)c1ccc(-n2cc(-c3ccc(-c4cn(-c5ccc(C(=O)O)c(C(F)(F)F)c5)nn4)o3)nn2)cc1C(F)(F)F [Compound 118, 4,4′-(furan-2,5-diylbis(1H-1,2,3-triazole-4,1-diyl))bis(2-(trifluoromethyl)benzoic acid)] | display PEM activity on an RNA template | – |

From patent publication US12698523B2, “Enhancement of nucleic acid polymerization by aromatic compounds” (priority 2019, dated 2026)
